Measured values from patent publication US20070141645A1, “Measuring method using whole blood” (MITSUBISHI KAGAKU IATRON, INC., priority 2005, published 2007).
Read-outs that look alike come from different tables or passages of the source.

Experiments:
ALP used as the label = details: addition of levamisole 0.2 mM; positive control
Description: (§1) The whole blood sample showing a high background in Example 1 was used as a whole blood negative control, and a plasma obtained by centrifuging the whole blood sample was used as a plasma negative control. Further, a sample obtained by adding a commercially available cTnI (10 ng/mL) to the whole blood sample was used as a whole blood positive control, and a plasma obtained by centrifuging the whole blood positive control was used as a plasma positive control. The obtained 4 samples were measured using the automated immunoanalyzer and the reagent kit for measuring cTnI, as described in Example 1 or 2, except that the ALP-labeled antibody was used as the second antibody.
(§2) Levamisole (SIGMA) was used to examine an inhibitory effect on an endogenous ALP. Levamisole was added to the solution of magnetic particles, the substrate solution, or both thereof at the final concentration of 0.2 mM. When levamisole was added to the solution of magnetic particles, the inhibitor acted in the measuring step (1) of the automated immunoanalyzer described in Example 1. When levamisole was added to the substrate solution, the inhibitor acted in the measuring step (3).

endogenous ALP = endogenous ALP (Homo sapiens, UniProt P05186); details: 3 weeks
Description: To a solution containing 0.4 mM CDP-Star, levamisole was added to final concentrations of 0.4, 1.0 and 4.0 mM to prepare substrate solutions to be examined. As a control, a substrate solution containing 0.4 mM CDP-Star without levamisole was used. Each solution was kept at 4, 25, and 37° C. for 3 weeks, and each remaining activity was measured.
Further, the substrate solutions containing 0.4 mM levamisole and kept at 4° C. and 37° C. for 3 weeks were used to confirm the inhibitory effect of levamisole.

[1] = target: endogenous ALP in whole blood (Homo sapiens, UniProt P05186); details: for Positive control (S) measured value (count of luminescence): cTnI 10 ng/mL added
Description: Each sample was measured using a reagent kit for measuring cardiac troponin I (cTnI). The kit contained a solution of the first antibody specific to cTnI (a solution of magnetic particles), a solution of the labeled second antibody, a B/F washing liquid, a substrate solution, and the like, and was packaged in a cartridge applicable to an automated immunoanalyzer described below. In this example, a buffer not containing a labeled antibody was used, instead of the solution of the second antibody labeled with an alkaline phosphatase (hereinafter referred to as “ALP”). The measurement was carried out using an automated immunoanalyzer for an immunoassay using magnetic particles, as disclosed in Japanese Patent No. 3115501. […] The measuring step in the analyzer will be described below.
A chemiluminescent substrate CDP-Star (Tropics) was used as a substrate. A count of luminescence detected by a photomultiplier tube (PMT) was regarded as a result of the measurement.
Each cartridge for an automatic measurement was filled with each sample, a liquid for diluting a sample, the solution of magnetic particles (coated with the first antibody), the washing liquid for B/F separation, the solution of the second antibody, the substrate solution, and the like, and set to the automated analyzer. The following steps were carried out in accordance with a normal procedure: • (1) The sample solution, the solution of magnetic particles, and the solution of the second antibody, previously adjusted to predetermined dilutions with the diluting liquid, were mixed to generate an immunocomplex by an antigen-antibody reaction. • (2) A B/F separation was carried out to remove unreacted substances as follows. The resulting reaction liquid was aspirated into the tip arranged as a line for aspirating a solution, and the magnetic particles were trapped by contact with a magnet on the outer wall of the tip. The solution was delivered from the tip while trapping the magnetic particles on the inner wall of the tip. After the separation, the washing liquid for the B/F separation filled in another reaction vessel was aspirated and delivered to wash the magnetic particles in the tip. • (3) The magnet was separated from the outer wall of the tip. The substrate solution was aspirated and delivered to disperse the magnetic particles trapped on the inner wall of the tip and carry out an enzyme reaction. • (4) An amount of luminescence was measured by PMT.
as §1, §2

[2] = levamisole 0.2 mM in magnetic particles solution and substrate solution
[3] = levamisole 0.2 mM in substrate solution only
[4] = plasma (a), levamisole 0.2 mM in magnetic particles solution and substrate solution
[5] = plasma (a), levamisole 0.2 mM in substrate solution only
[6] = whole blood (b), levamisole 0.2 mM in magnetic particles solution and substrate solution
[7] = whole blood (b), levamisole 0.2 mM in substrate solution only

Chain of endogenous ALP in whole blood (P05186 18-501 limits assumed): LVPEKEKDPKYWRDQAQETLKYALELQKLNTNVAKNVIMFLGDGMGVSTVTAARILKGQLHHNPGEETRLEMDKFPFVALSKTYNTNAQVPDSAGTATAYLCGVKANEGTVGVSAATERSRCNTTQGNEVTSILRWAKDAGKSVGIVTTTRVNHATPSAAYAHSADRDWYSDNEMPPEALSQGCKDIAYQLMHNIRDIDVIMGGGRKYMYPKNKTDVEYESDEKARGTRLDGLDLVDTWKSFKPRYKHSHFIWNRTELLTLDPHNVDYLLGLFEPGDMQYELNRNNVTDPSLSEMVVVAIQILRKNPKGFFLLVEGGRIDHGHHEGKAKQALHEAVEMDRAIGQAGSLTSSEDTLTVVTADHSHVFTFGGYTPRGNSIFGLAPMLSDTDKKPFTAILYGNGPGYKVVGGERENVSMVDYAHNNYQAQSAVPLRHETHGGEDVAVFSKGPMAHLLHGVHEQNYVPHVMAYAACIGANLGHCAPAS
Chain of endogenous ALP (P05186 18-501 limits assumed): as above

Compound: c1ccc([C@H]2CN3CCSC3=N2)cc1 [levamisole]
- effect on the ALP used as the label (ALP used as the label): did not adversely affect
- count with stored substrate solution (inhibitory effect of levamisole) (endogenous ALP; 0.4 mM levamisole in 0.4 mM CDP-Star substrate solution kept at 4° C.): 4086
- count with stored substrate solution (inhibitory effect of levamisole) (endogenous ALP; 0.4 mM levamisole in 0.4 mM CDP-Star substrate solution kept at 37° C.): 2920
- increased background caused by an endogenous ALP in whole blood samples or hemolized samples ([1]; addition of levamisole 0.2 mM): suppressed
- Negative control b/a (whole blood to plasma) [1, 2]: 2.33
- Positive control b/a (whole blood to plasma) [1, 2]: 1.22
- b/[levamisole (—) whole blood negative control] [1, 2]: 0.18
- b/[levamisole (—) whole blood positive control] [1, 2]: 0.79
- Negative control b/a (whole blood to plasma) [1, 3]: 2.41
- Positive control b/a (whole blood to plasma) [1, 3]: 1.33
- b/[levamisole (—) whole blood negative control] [1, 3]: 0.17
- b/[levamisole (—) whole blood positive control] [1, 3]: 0.94
- Positive control (S) measured value (count of luminescence) [1, 4]: 78622
- Positive control (S) measured value (count of luminescence) [1, 5]: 84776
- Negative control (N) measured value (count of luminescence) [1, 4]: 808
- S/N (positive control to negative control) [1, 4]: 97.3
- Negative control (N) measured value (count of luminescence) ([1]; plasma (a), levamisole 0.2 mM in substrate (CDP-star) solution only): 708
- S/N (positive control to negative control) [1, 5]: 119.7
- Positive control (S) measured value (count of luminescence) [1, 6]: 95856
- Positive control (S) measured value (count of luminescence) [1, 7]: 113017
- Negative control (N) measured value (count of luminescence) [1, 6]: 1883
- S/N (positive control to negative control) [1, 6]: 50.9
- Negative control (N) measured value (count of luminescence) ([1]; whole blood (b), levamisole 0.2 mM in substrate (CDP-star) solution only): 1705
- S/N (positive control to negative control) [1, 7]: 66.3
